Literature values, collected in paper PMC8617944, “Preclinical Pharmacokinetics and Acute Toxicity in Rats of 5-{[(2E)-3-Bromo-3-carboxyprop-2-enoyl]amino}-2-hydroxybenzoic Acid: A Novel 5-Aminosalicylic Acid Derivative with Potent Anti-Inflammatory Activity” (Molecules, 2021).

What was measured:
[1] = design: method as in ref 32, 33 = [32]; doi:10.1016/j.arabjc.2016.12.026; 32. Cabrera Pérez L.C. Gutiérrez Sánchez M. Mendieta Wejebe J.E. Hernández Rodríguez M. Fragoso Vázquez M.J. Salazar J.R. Correa Basurto J. Padilla Martínez I.I. Rosales Hernández M.C. Novel 5-aminosa || [33]; 33. Correa Basurto J. Rosales Hernández M.C. Mendieta Wejebe J.E. Trujillo Ferrara J.G. Padilla Martínez I.I. Ramírez Durán L.A. Alemán González Duhart D. Síntesis de un derivado del ácido 5-aminosali; details: 0.408 mM; cited from earlier work
rats = details: rat, in vivo, po; cited from earlier work

With `Nc1ccc(O)c(C(=O)O)c1` [Compound 5-ASA, 5-aminosalicylic acid] as the compound, how does the “reduction of the free radical DPPH” value [1] read?
Its value is “about 85%”.

What about the LD50 (rats) of the same compound?
Its LD50 is 2800 mg/kg.
